# Assay results reported in patent publication US20080306044A1, “SPIROBENZOAZEPANES AS VASOPRESSIN ANTAGONISTS” (priority 2007, published 2008).
# pIC50: −log10 of the molar value.
# Experiments:
# human V2 receptor [1] = target: T1, human V2 receptor (Homo sapiens, UniProt P30518); assay: V2 vasopressin receptor functional activity (cAMP accumulation); assay type: cell-based; set-up: expressed in transfected cells; host or cells: HEK-293; details: V2-HEK cells; block of vasopressin-stimulated cAMP accumulation; read-out: V2 (functional) IC50
# T1 sequence (P30518 whole entry): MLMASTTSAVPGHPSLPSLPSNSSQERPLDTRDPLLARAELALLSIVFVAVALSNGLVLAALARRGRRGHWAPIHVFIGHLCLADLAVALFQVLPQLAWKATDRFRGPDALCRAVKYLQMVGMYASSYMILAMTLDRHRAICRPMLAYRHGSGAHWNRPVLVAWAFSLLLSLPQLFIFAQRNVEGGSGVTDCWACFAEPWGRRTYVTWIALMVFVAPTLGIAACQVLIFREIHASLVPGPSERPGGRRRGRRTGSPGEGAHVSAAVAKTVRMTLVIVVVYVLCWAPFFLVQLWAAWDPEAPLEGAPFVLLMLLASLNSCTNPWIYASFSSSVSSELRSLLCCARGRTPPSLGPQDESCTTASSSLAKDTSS
# Description: The V2 receptor is also a G-protein coupled receptor which when activated induces an increase in cAMP turnover. Antagonism against the V2 receptor is determined by measuring cAMP accumulation in transfected HEK-293 cells expressing the human V-2 receptor (V2-HEK cells). Compounds are tested for their ability to block the stimulatory effects of vasopressin on cAMP accumulation. The cell content of cAMP is measured by radioimmunoassay using NEN flashplates.
# human V2 receptor [2] = target: T1, human V2 receptor; assay: In-vitro binding assay (3H-arginine-8-vasopressin), V2; details: for pIC50: membrane containing human V2 receptor, 3H-arginine-8-vasopressin 0.65-0.75 nM; for inhibition at 0.2 µM: test concentration of 0.2 μM, read-out: V2 binding percent inhibition (in parentheses, where an IC50 value was not obtained)
# Description: Assay buffer is 50 mM Tris-Cl, 5 mM MgCl2, 0.1% BSA (pH 7.5) containing 5 μg/mL of aprotinin, leupeptin, pepstatin, 50 μg/mL bacitracin, and 1 mM Pefabloc (4-(2-aminoethyl)-benzenesulfonyl fluoride, hydrochloride manufactured by Roche Diagnostics Corporation, Indianapolis, Ind. and distributed by Boehringer Mannheim). […] Into the wells of a 96-well round bottom polypropylene plates are added buffer, test compound, membrane (containing human V1a or V2 receptor), and H3 vasopressin. The reaction plates are allowed to sit at room temperature for one hour. The samples are filtered through Unifilter GF/C plates (PerkinElmer Life Sciences, Boston, Mass.) presoaked in 0.3 polyethyleneimine. The plates are washed 5 times with cold physiological saline containing 0.05% Tween 20. After drying, the bottom of the filter plates are sealed and 0.025 mL of Microscint-20 (Packard Instrument Co, Meriden, Conn.) is added to each filter. The top of the plate is sealed, and the plate is counted.
# (§1) The % inhibition for the test results was calculated according to the formula: […]
# human V1a receptor [3] = target: T2, human V1a receptor (Homo sapiens, UniProt P37288); assay: In-vitro binding assay (3H-arginine-8-vasopressin), V1a; details: for pIC50: membrane containing human V1a receptor, 3H-arginine-8-vasopressin 0.65-0.75 nM; for inhibition at 0.2 µM: test concentration of 0.2 μM, read-out: V1a binding percent inhibition (in parentheses, where an IC50 value was not obtained)
# T2 construct: expressed in transfected cells
# T2 sequence (P37288 whole entry): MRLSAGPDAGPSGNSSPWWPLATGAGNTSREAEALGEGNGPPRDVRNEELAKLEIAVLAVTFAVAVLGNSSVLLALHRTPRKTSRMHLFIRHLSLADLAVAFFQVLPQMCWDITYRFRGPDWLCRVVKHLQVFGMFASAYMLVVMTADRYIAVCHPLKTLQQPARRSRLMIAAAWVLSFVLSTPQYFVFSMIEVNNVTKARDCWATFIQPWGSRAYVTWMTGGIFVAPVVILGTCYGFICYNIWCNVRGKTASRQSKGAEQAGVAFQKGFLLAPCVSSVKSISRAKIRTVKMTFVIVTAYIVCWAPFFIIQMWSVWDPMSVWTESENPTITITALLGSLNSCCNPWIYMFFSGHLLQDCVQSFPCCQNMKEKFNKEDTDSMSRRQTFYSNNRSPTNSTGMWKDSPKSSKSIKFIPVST
# Description: Assay buffer is 50 mM Tris-Cl, 5 mM MgCl2, 0.1% BSA (pH 7.5) containing 5 μg/mL of aprotinin, leupeptin, pepstatin, 50 μg/mL bacitracin, and 1 mM Pefabloc (4-(2-aminoethyl)-benzenesulfonyl fluoride, hydrochloride manufactured by Roche Diagnostics Corporation, Indianapolis, Ind. and distributed by Boehringer Mannheim). H3 vasopressin is ^3H-arginine-8-vasopressin (NEN Life Sciences, Boston, Mass.; 68.5 Ci/mmol, final concentration in assay is 0.65-0.75 nM). Into the wells of a 96-well round bottom polypropylene plates are added buffer, test compound, membrane (containing human V1a or V2 receptor), and H3 vasopressin. The reaction plates are allowed to sit at room temperature for one hour. The samples are filtered through Unifilter GF/C plates (PerkinElmer Life Sciences, Boston, Mass.) presoaked in 0.3 polyethyleneimine. The plates are washed 5 times with cold physiological saline containing 0.05% Tween 20. After drying, the bottom of the filter plates are sealed and 0.025 mL of Microscint-20 (Packard Instrument Co, Meriden, Conn.) is added to each filter. The top of the plate is sealed, and the plate is counted. Non-specific binding is determined by the addition of 1.25 μM arginine-8-vasopressin in those wells.
# as §1
# Where an IC50 value was not obtained, the percent inhibition values are shown in parentheses (*) and were obtained at a test concentration of 0.2 μM.
# human V1a receptor [4] = target: T2, human V1a receptor; assay: cell-based
# Description: The V1a receptor is a G-protein coupled receptor, which upon activation triggers an increase in intracellular calcium mobilization. To evaluate compounds for their functional V1a receptor activity, HEK-293 cells were transfected with the human V1a receptor (V1a-HEK cells). HEK-293 cells were grown in DMEM (Dulbecco's modified Eagle Media) supplemented with 10% FBS and glutamine. HEK-cells were passed biweekly by trypsinization and seeded into 96 well plates at 33,000 cells per well. HEK-293 cells were transfected with human V1a receptor DNA using DMRIE-C reagent from Life Technologies (Carlsbad, Calif.). Stable lines were generated by selecting cells grown in culture media containing geneticin. After growing in Packard Clear-View black 96 well plates for 4-6 days, V1a-HEK cells were loaded with the calcium-sensitive fluorescence dye, FLUO-3 AM. Changes in intracellular calcium mobilization were measured by quantitating intracellular fluorescence using FLIPR (Fluorometric Imaging Plate Reader; Molecular Devices, Sunnyvale, Calif.). Test compounds were first added to the cells and the resulting changes in fluorescence measured to detect receptor agonistic activity. Five minutes later the cells were challenged with vasopressin to test compounds for their antagonistic activity. Receptor antagonists inhibit the ability of vasopressin to stimulate increases in intracellular fluorescence.
# [5] = V1 (functional) IC50, V1a-HEK cells, inhibition of vasopressin-stimulated intracellular calcium mobilization
Compound,pIC50 (human V2 receptor [1]),pIC50 (human V2 receptor [2]),pIC50 (human V1a receptor [3]),pIC50 (human V1a receptor [4]; [5]),other results
"COc1cc(C(=O)N2CCC3(CCCC3=NO)Cc3ccccc32)ccc1NC(=O)c1cc(F)ccc1Cl (centres unmarked) [Cpd 42, N-[3-methoxy-4-(2-chloro-5-fluoro-phenylcarbonyl)amino-phenylcarbonyl]-2-hydroxyimino-spiro[cyclopentane-1,4′-benzo[b]azepane]]",7.04,7.41,7.92,7.22,
"CN(C)N=C1CCCC12CCN(C(=O)c1ccc(NC(=O)c3cc(F)ccc3Cl)cc1)c1ccccc1C2 (centres unmarked) [Cpd 3, N-[4-(2-chloro-5-fluoro-phenylcarbonyl)amino-phenylcarbonyl]-2-dimethylaminoimino-spiro[cyclopentane-1,4′-benzo[b]azepane]]",6.60,,8.05,7.70,inhibition at 0.2 µM (human V2 receptor [2]): 48%
"O=C(NN=C1CCCC12CCN(C(=O)c1ccc(NC(=O)c3cc(F)ccc3Cl)cc1)c1ccccc1C2)c1cccnc1 (centres unmarked) [Cpd 4, N-[4-(2-chloro-5-fluoro-phenylcarbonyl)amino-phenylcarbonyl]-2-pyridin-3-ylcarbonylaminoimino-spiro[cyclopentane-1,4′-benzo[b]azepane]]",7.37,7.21,7.92,7.70,
"O=C(Nc1ccc(C(=O)N2CCC3(CCCC3=NNc3ccccn3)Cc3ccccc32)cc1)c1cc(F)ccc1Cl (centres unmarked) [Cpd 43, N-[4-(2-chloro-5-fluoro-phenylcarbonyl)amino-phenylcarbonyl]-2-pyridin-2-ylaminoimino-spiro[cyclopentane-1,4′-benzo[b]azepane]]",6.70,7.25,8.30,7.10,
"COc1cc(C(=O)N2CCC3(CCCC3N)Cc3ccccc32)ccc1NC(=O)c1cc(F)ccc1Cl (centres unmarked) [Cpd 8, 2-amino-N-[3-methoxy-4-(2-chloro-5-fluoro-phenylcarbonyl)amino-phenylcarbonyl]-spiro[cyclopentane-1,4′-benzo[b]azepane]]",,7.08,7.80,,
"Cc1ccccc1C(=O)Nc1ccc(C(=O)N2CCC3(CCCC3=NO)Cc3ccccc32)cc1 (centres unmarked) [Cpd 49, N-[4-(2-methyl-phenylcarbonyl)amino-phenylcarbonyl]-2-hydroxyimino-spiro[cyclopentane-1,4′-benzo[b]azepane]]",,7.47,7.92,,
"Cc1ccc(F)cc1C(=O)Nc1ccc(C(=O)N2CCC3(CCCC3=NO)Cc3ccccc32)cc1 (centres unmarked) [Cpd 48, N-[4-(2-methyl-5-fluoro-phenylcarbonyl)amino-phenylcarbonyl]-2-hydroxyimino-spiro[cyclopentane-1,4′-benzo[b]azepane]]",,7.59,7.80,,
"CON=C1CCCC12CCN(C(=O)c1ccc(NC(=O)c3cc(F)ccc3Cl)cc1)c1ccccc1C2 (centres unmarked) [Cpd 2, N-[4-(2-chloro-5-fluoro-phenylcarbonyl)amino-phenylcarbonyl]-2-methoxyimino-spiro[cyclopentane-1,4′-benzo[b]azepane]]",,7.36,8.15,,
"O=C(Nc1ccc(C(=O)N2CCC3(CCCC3=NO)Cc3ccccc32)cn1)c1cc(F)ccc1Cl (centres unmarked) [Cpd 10, N-[6-(2-chloro-5-fluoro-phenylcarbonyl)amino-pyridin-3-ylcarbonyl]-2-hydroxyimino-spiro[cyclopentane-1,4′-benzo[b]azepane]]",,7.15,7.22,,
"COc1cc(C(=O)N2CCC3(CCCC3=NO)Cc3ccccc32)ccc1NC(=O)c1cccc(F)c1 (centres unmarked) [Cpd 51, N-[3-methoxy-4-(3-fluoro-phenylcarbonyl)amino-phenylcarbonyl]-2-hydroxyimino-spiro[cyclopentane-1,4′-benzo[b]azepane]]",,7.06,7.80,,
"COc1cc(C(=O)N2CC[C@]3(C=C(C(=O)NS(=O)(=O)N(C)C)CC3)Cc3ccccc32)ccc1NC(=O)c1cc(F)ccc1Cl [Cpd 36, (R)-N-[3-methoxy-4-(2-chloro-5-fluoro-phenylcarbonyl)amino-phenylcarbonyl]-3-[(dimethylaminosulfonyl)aminocarbonyl]-spiro[cyclopent-2-ene-1,4′-benzo[b]azepane]]",6.77,,,,pIC50 (human V1a receptor [4]): 6.68
"Cc1ccn(-c2ccc(C(=O)N3CCC4(CCCC4=NO)Cc4ccccc43)cc2)n1 (centres unmarked) [Cpd 47, N-[4-(3-methyl-1H-pyrazol-1-yl)-phenylcarbonyl]-2-hydroxyimino-spiro[cyclopentane-1,4′-benzo[b]azepane]]",,,,,inhibition at 0.2 µM (human V2 receptor [2]): 62%; inhibition at 0.2 µM (human V1a receptor [3]): 86%
"COc1cc(C(=O)N2CC[C@@]3(CCC(NS(N)(=O)=O)C3)Cc3ccccc32)ccc1NC(=O)c1cc(F)ccc1Cl (stereo partly drawn) [Cpd 19, (1R)-3-aminosulfonylamino-N-[3-methoxy-4-(2-chloro-5-fluoro-phenylcarbonyl)amino-phenylcarbonyl]-spiro[cyclopentane-1,4′-benzo[b]azepane]]",6.92,,,7.00,
"COc1cc(C(=O)N2CC[C@@]3(CC[C@H](NS(N)(=O)=O)C3)Cc3ccccc32)ccc1NC(=O)c1cc(F)ccc1Cl [Cpd 34, (1R,3S)-3-aminosulfonylamino-N-[3-methoxy-4-(2-chloro-5-fluoro-phenylcarbonyl)amino-phenylcarbonyl]-spiro[cyclopentane-1,4′-benzo[b]azepane]]",6.60,,,6.60,
"COc1cc(C(=O)N2CC[C@@]3(CCC(=NOCC(=O)O)C3)Cc3ccccc32)ccc1NC(=O)c1cc(F)ccc1Cl [Cpd 24, (R)—N-[3-methoxy-4-(2-chloro-5-fluoro-phenylcarbonyl)amino-phenylcarbonyl]-3-carboxymethoxyimino-spiro[cyclopentane-1,4′-benzo[b]azepane]]",6.66,,,,pIC50 (human V1a receptor [4]): 7.00
"COc1cc(C(=O)N2CCC3(CCCC3N)Cc3ccccc32)ccc1NC(=O)c1cccc(F)c1 (centres unmarked) [Cpd 50, 2-amino-N-[3-methoxy-4-(3-fluoro-phenylcarbonyl)amino-phenylcarbonyl]-spiro[cyclopentane-1,4′-benzo[b]azepane]]",,,,,inhibition at 0.2 µM (human V2 receptor [2]): 9%; inhibition at 0.2 µM (human V1a receptor [3]): 89%
"O=C(c1ccc(N2CCCC2)cc1)N1CCC2(CCCC2=NO)Cc2ccccc21 (centres unmarked) [Cpd 46, N-[4-pyrrolidin-1-yl-phenylcarbonyl]-2-hydroxyimino-spiro[cyclopentane-1,4′-benzo[b]azepane]]",,,,,inhibition at 0.2 µM (human V2 receptor [2]): 40%; inhibition at 0.2 µM (human V1a receptor [3]): 73%
"COC(=O)C=C1CC[C@@]2(CCN(C(=O)c3ccc(NC(=O)c4cc(F)ccc4Cl)c(OC)c3)c3ccccc3C2)C1 [Cpd 26, (R)—N-[3-methoxy-4-(2-chloro-5-fluoro-phenylcarbonyl)amino-phenylcarbonyl]-3-methoxycarbonylmethylene-spiro[cyclopentane-1,4′-benzo[b]azepane]]",7.15,,,5.40,
